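Tested at 5 concentrations; 48 h exposure; 96-well plates; endpoints linearly interpolated, else capped at highest concentration. GI50 is the concentration that inhibits growth by half. TGI: total growth inhibition.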
Columns and labels:
Experiment in all cases: NCI tumour cell line growth inhibition, 48 h
SW-620 colon = test system: SW-620 colon
MDA-MB-435 = test system: MDA-MB-435
CAKI-1 renal = test system: CAKI-1 renal
HL-60(TB) leukemia = test system: HL-60(TB) leukemia
PC-3 prostate = test system: PC-3 prostate
SK-OV-3 ovarian = test system: SK-OV-3 ovarian
OVCAR-5 ovarian = test system: OVCAR-5 ovarian
HT29 colon = test system: HT29 colon
HCT-116 colon = test system: HCT-116 colon
MALME-3M melanoma = test system: MALME-3M melanoma

CN1c2ccccc2C(C)(C)C12C=Cc1cc(O)ccc1O2 (configuration not stated)
GI50 (SW-620 colon): 3.4 µM | TGI (SW-620 colon): 13.8 µM | GI50 (MDA-MB-435): 2.1 µM | TGI (MDA-MB-435): 4.49 µM | GI50 (CAKI-1 renal): 3.37 µM | TGI (CAKI-1 renal): 12.4 µM | GI50 (HL-60(TB) leukemia): 1.89 µM | TGI (HL-60(TB) leukemia): 11.8 µM | GI50 (PC-3 prostate): 3.6 µM | TGI (PC-3 prostate): 12.6 µM | GI50 (SK-OV-3 ovarian): 3.41 µM | TGI (SK-OV-3 ovarian): 8.81 µM | GI50 (OVCAR-5 ovarian): 10.2 µM | TGI (OVCAR-5 ovarian): 25.2 µM | GI50 (HT29 colon): 3.33 µM | TGI (HT29 colon): 11.6 µM | GI50 (HCT-116 colon): 2.8 µM | TGI (HCT-116 colon): 11.8 µM

CCc1cccc(C(C)C)c1N1C(=O)C(=O)C(c2nc3ccccc3s2)C(=O)C1=O
TGI (SW-620 colon): > 50 µM | TGI (MALME-3M melanoma): > 45.3 µM | TGI (CAKI-1 renal): > 50 µM | TGI (HL-60(TB) leukemia): 30.9 µM | TGI (SK-OV-3 ovarian): > 50 µM | TGI (OVCAR-5 ovarian): > 50 µM | TGI (HT29 colon): > 50 µM | TGI (HCT-116 colon): > 50 µM

C1CCN(c2nc(=[N+]3CCCCC3)ss2)CC1
TGI (SW-620 colon): > 100 µM | TGI (MALME-3M melanoma): > 100 µM | TGI (CAKI-1 renal): > 100 µM | TGI (HL-60(TB) leukemia): > 100 µM | TGI (SK-OV-3 ovarian): > 100 µM | TGI (OVCAR-5 ovarian): > 100 µM | TGI (HT29 colon): > 100 µM | TGI (HCT-116 colon): > 100 µM

Cc1cc(N(CCNc2ccnc3cc(Cl)ccc23)Cc2ccco2)nc(Cl)n1
GI50 (SW-620 colon): 1.75 µM | TGI (SW-620 colon): 3.46 µM | GI50 (MALME-3M melanoma): 1.78 µM | TGI (MALME-3M melanoma): 3.33 µM | GI50 (MDA-MB-435): 1.72 µM | TGI (MDA-MB-435): 3.37 µM | GI50 (PC-3 prostate): 1.71 µM | TGI (PC-3 prostate): 3.18 µM | GI50 (SK-OV-3 ovarian): 1.66 µM | TGI (SK-OV-3 ovarian): 3.13 µM | GI50 (OVCAR-5 ovarian): 1.68 µM | TGI (OVCAR-5 ovarian): 3.23 µM | GI50 (HT29 colon): 1.58 µM | TGI (HT29 colon): 3.24 µM | GI50 (HCT-116 colon): 1.48 µM | TGI (HCT-116 colon): 2.84 µM

O=C(Nc1nc2ncn(CCNCc3ccccc3)c2c(=O)[nH]1)c1ccccc1
TGI (SW-620 colon): > 100 µM | TGI (MALME-3M melanoma): > 100 µM | TGI (CAKI-1 renal): > 100 µM | TGI (HL-60(TB) leukemia): > 100 µM | TGI (SK-OV-3 ovarian): > 100 µM | TGI (OVCAR-5 ovarian): > 100 µM | TGI (HT29 colon): > 100 µM | TGI (HCT-116 colon): > 100 µM

COC(=O)CCCC(=O)O
TGI (SW-620 colon): > 100 µM | TGI (MALME-3M melanoma): > 100 µM | TGI (MDA-MB-435): > 100 µM | TGI (CAKI-1 renal): > 100 µM | TGI (PC-3 prostate): > 100 µM | TGI (OVCAR-5 ovarian): > 100 µM | TGI (HT29 colon): > 100 µM | TGI (HCT-116 colon): > 100 µM

CC1C[C@@H]2C(=O)NC(=O)[C@@H]2c2c1c1ccccc1n2C (some centres not stated)
TGI (SW-620 colon): > 100 µM | TGI (MALME-3M melanoma): > 100 µM | TGI (CAKI-1 renal): > 100 µM | TGI (HL-60(TB) leukemia): > 100 µM | TGI (SK-OV-3 ovarian): > 100 µM | TGI (HT29 colon): > 100 µM

O=C(Cn1ccnc1[N+](=O)[O-])c1ccc(F)cc1
TGI (SW-620 colon): > 100 µM | TGI (MALME-3M melanoma): > 100 µM | TGI (CAKI-1 renal): > 100 µM | TGI (HL-60(TB) leukemia): > 100 µM | TGI (SK-OV-3 ovarian): > 100 µM | TGI (OVCAR-5 ovarian): > 100 µM | TGI (HT29 colon): > 100 µM

CN(C)c1ccc(Nc2cc(-c3cccc(OC(F)(F)F)c3)nc3ccc(N4CCCC4)cc23)cc1
GI50 (MALME-3M melanoma): 1.66 µM | TGI (MALME-3M melanoma): 3.11 µM | GI50 (MDA-MB-435): 1.82 µM | TGI (MDA-MB-435): 3.37 µM | GI50 (CAKI-1 renal): 1.75 µM | TGI (CAKI-1 renal): 3.57 µM | GI50 (SK-OV-3 ovarian): 13.1 µM | TGI (SK-OV-3 ovarian): 25.7 µM | GI50 (OVCAR-5 ovarian): 1.79 µM | TGI (OVCAR-5 ovarian): 3.37 µM | GI50 (HT29 colon): 2.18 µM | TGI (HT29 colon): 4.59 µM

O=[N+]([O-])c1cccc(C2ON2C2CCCCC2)c1 (configuration not stated)
TGI (SW-620 colon): 24.7 µM | TGI (MALME-3M melanoma): 54.6 µM | TGI (CAKI-1 renal): 58.7 µM | TGI (HL-60(TB) leukemia): 47.9 µM | TGI (SK-OV-3 ovarian): > 100 µM | TGI (OVCAR-5 ovarian): > 100 µM | TGI (HT29 colon): 28 µM | TGI (HCT-116 colon): 26.3 µM

CC(C)(C)c1cc2c3c(c1)C(C(F)(F)F)(C(F)(F)F)O[Te]3(C)OC2(C(F)(F)F)C(F)(F)F
TGI (SW-620 colon): > 100 µM | TGI (MALME-3M melanoma): > 100 µM | TGI (CAKI-1 renal): > 100 µM | TGI (HL-60(TB) leukemia): > 100 µM | TGI (SK-OV-3 ovarian): > 100 µM | TGI (OVCAR-5 ovarian): > 100 µM | TGI (HT29 colon): > 100 µM | TGI (HCT-116 colon): > 100 µM

Reference: PubChem BioAssay (NCI)
